Assay results as given in paper PMC6658769, “First-Time-in-Human Study and Prediction of Early Bactericidal Activity for GSK3036656, a Potent Leucyl-tRNA Synthetase Inhibitor for Tuberculosis Treatment” (Antimicrobial Agents and Chemotherapy, 2019).
≈ marks a conversion by molar mass, not a printed value.

Columns and labels:
[1] = tested on: M. tuberculosis bacterial strain H37Rv; design: method as in PMID 28953378; conditions: in vitro; cited from earlier work
[2] = both, human, in vivo
[3] = Nonclinical toxicity studies (NOAEL exposure); assay type: in vivo; conditions: oral
Description: The principal findings observed in nonclinical toxicity studies following oral administration of GSK3036656 were cardiovascular and hematopoietic, with some minor changes in the liver, kidney, and thymus. The hematopoietic, kidney, liver, and thymus effects are considered either nonadverse or monitorable in the clinic. The structural cardiovascular changes that occurred in a single species at high doses were nonmonitorable but occurred at plasma concentrations where heart rate (HR) and blood pressure (BP) changes are recorded. Specific cardiovascular safety endpoints were included in the first-time-in-human (FTIH) study, including vital sign (HR and BP) stopping criteria.

[4] = Population PK model at completion of the study
[5] = in vitro; assay type: in vitro ADME; conditions: mouse, plasma
[6] = human, in vivo
[7] = tested on: cytochrome P450s; assay type: in vitro ADME
[8] = target: T1, OATP1B1 (Homo sapiens, UniProt Q9Y6L6); assay: Direct inhibition of OATP1B1; assay type: in vitro ADME; conditions: in vitro
T1 sequence (Q9Y6L6 1-691): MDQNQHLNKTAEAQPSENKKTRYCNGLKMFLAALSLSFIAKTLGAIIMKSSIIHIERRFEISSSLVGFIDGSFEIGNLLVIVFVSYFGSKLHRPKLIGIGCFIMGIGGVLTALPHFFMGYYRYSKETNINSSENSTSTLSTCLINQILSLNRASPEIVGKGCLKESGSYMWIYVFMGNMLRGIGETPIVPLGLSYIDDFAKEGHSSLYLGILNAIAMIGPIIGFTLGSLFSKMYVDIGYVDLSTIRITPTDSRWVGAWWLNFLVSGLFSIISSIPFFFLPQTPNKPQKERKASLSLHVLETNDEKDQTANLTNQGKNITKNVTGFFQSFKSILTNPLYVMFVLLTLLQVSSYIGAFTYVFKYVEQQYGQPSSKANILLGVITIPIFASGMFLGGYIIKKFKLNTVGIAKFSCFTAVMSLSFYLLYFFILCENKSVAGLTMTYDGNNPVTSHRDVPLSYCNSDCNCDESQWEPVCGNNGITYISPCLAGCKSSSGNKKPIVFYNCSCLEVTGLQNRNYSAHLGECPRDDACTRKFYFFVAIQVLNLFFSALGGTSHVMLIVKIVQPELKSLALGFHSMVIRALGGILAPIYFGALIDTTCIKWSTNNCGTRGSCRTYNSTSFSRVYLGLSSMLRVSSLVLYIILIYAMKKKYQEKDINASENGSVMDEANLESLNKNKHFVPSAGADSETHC

[9] = in vitro; assay type: in vitro ADME, humans; conditions: human, plasma
[10] = clinical; conditions: human, in vivo, po, 5 mg, Ref

NC[C@H]1OB(O)c2c(OCCO)ccc(Cl)c21 [GSK3036656, (S)-3-(aminomethyl)-4-chloro-7-(2-hydroxyethoxy)benzo[c][1,2]oxaborol-1(3H)-ol]
MIC [1]: 23.5 ng/mL (≈ 0.0913 µM)
dose-proportionality slope, AUC0–t [2]: 1.32
dose-proportionality slope, Cmax and AUC0–∞ [2]: 0.96
AUC ([3]; plasma): 4900 ng·h/mL
Cmax ([3]; serum): < 443 ng/mL
CL/F, bootstrap median estimate ([4]; bootstrap (1,000 runs)): 3.7 L/h
IIV Q/F, bootstrap median estimate ([4]; bootstrap (1,000 runs)): 26.5
IIV V2/F, bootstrap median estimate ([4]; bootstrap (1,000 runs)): 107
IIV V3/F, bootstrap median estimate ([4]; bootstrap (1,000 runs)): 22.9
Q/F, bootstrap median estimate ([4]; bootstrap (1,000 runs)): 63.1 L/h
V2/F, bootstrap median estimate ([4]; bootstrap (1,000 runs)): 15.9 L
V3/F, bootstrap median estimate ([4]; bootstrap (1,000 runs)): 149 L
CL/F, estimate (%SE) ([4]; final population PK model): 3.69 (3) liters/h
Q/F, estimate (%SE) ([4]; final population PK model): 63 (15) liters/h
V2/F, estimate (%SE) ([4]; final population PK model): 14.9 (30) liters
V3/F, estimate (%SE) ([4]; final population PK model): 150 (6) liters
IIV Q/F, estimate (%SE) ([4]; random effects, final model): 27.3 (37)
IIV V2/F, estimate (%SE) ([4]; random effects, final model): 111 (37)
IIV V3/F, estimate (%SE) ([4]; random effects, final model): 23.3 (30)
fraction unbound [5]: 0.792
Absorption lag time, bootstrap median estimate [6]: 0.24 h
Absorption lag time, estimate (%SE) [6]: 0.235 (3) h
Ka, bootstrap median estimate [6]: 0.95 h⁻¹
Ka, estimate (%SE) [6]: 0.925 (23) h^−1
Residual variability (Prop), bootstrap median estimate [6]: 12.6%
Residual variability (Prop), estimate (%SE) [6]: 12.9 (16) %
direct inhibition of cytochrome P450s [7]: minimal evidence for direct inhibition
direct inhibition of OATP1B1 [8]: minimal evidence for direct inhibition
fraction unbound [9]: 0.838
AUC(0-t) ([10]; AUC0–t, geometric LS mean): 732 ng·h/mL
AUC(0-inf) ([10]; AUC0–∞, geometric LS mean): 1430 ng·h/mL
Cmax ([10]; Cmax, geometric LS mean): 48.4 ng/mL
Tmax ([10]; Tmax): 1.25 h
